Data reported in patent publication US8153593B2, “Transglutaminase inhibitors and methods of use thereof” (The Board of Trustees of the Leland Stanford Junior …, priority 2003, dated 2012).
*1 amine or outer side, *2 acyl side, *3 side chain or, on linkers, in order; H or OH if unused. Where a SMILES comes first, the peptide text is derived from it. [ ]: non-standard residue; d: D form. X2 = [N-]=[N+]=CC(=O)CC[C@@H](N[*:1])C(=O)[*:2]; DON = [N-]=[N+]=CC(=O)CC[C@H](N)C(=O)O

Columns and labels:
human TG2 [1] = molecular target: T1, human TG2 (Homo sapiens, UniProt P21980); assay: TG2 inhibition kinetics by the method of Hausch et al.; type: biochemical; set-up: ki/KI: unit not given here
T1 sequence (P21980 1-687): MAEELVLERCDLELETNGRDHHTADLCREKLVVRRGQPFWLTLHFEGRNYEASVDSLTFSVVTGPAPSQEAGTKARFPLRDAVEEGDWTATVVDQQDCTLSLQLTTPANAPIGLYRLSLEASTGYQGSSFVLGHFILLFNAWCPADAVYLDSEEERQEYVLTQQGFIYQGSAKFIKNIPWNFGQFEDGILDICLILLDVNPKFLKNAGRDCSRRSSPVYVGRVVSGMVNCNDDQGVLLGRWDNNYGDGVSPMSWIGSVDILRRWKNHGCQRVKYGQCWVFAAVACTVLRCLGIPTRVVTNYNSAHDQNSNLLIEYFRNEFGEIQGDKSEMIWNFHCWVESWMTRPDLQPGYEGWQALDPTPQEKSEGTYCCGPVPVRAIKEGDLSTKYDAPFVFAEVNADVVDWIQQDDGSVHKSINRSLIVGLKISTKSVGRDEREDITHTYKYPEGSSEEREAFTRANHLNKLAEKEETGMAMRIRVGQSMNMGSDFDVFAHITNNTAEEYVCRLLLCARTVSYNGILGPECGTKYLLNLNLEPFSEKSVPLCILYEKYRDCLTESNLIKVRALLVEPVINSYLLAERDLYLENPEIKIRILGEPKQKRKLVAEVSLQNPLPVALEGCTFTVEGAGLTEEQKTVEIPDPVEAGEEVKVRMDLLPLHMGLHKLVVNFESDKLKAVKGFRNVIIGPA
From the text: Earlier disclosures had reported the synthesis and evaluation of a promising peptidic inhibitor of human TG2, (SEQ ID NO:1) Ac-Pro-Gln-Pro-DON-Leu-Pro-Phe-NH2. We now disclose a truncated analog that is easier to synthesize and has greater activity.
Characterization: (SEQ ID NO:3) Ac-Pro-DON-Leu-Pro-Phe-NH2 was characterized by the method of Hausch et al. (Hausch et al., Chem. Biol. (2003) 10, 225-231).

tumor associated TG2 = molecular target: T2, tumor associated TG2 (Mus musculus, UniProt P21981); assay: Intracranial DBT tumor associated TG2 activity after dosing; type: in vivo, mice
T2 construct: from tissue; host or cells: intracranial DBT glioblastoma tumours from dosed mice
T2 sequence (P21981 1-686): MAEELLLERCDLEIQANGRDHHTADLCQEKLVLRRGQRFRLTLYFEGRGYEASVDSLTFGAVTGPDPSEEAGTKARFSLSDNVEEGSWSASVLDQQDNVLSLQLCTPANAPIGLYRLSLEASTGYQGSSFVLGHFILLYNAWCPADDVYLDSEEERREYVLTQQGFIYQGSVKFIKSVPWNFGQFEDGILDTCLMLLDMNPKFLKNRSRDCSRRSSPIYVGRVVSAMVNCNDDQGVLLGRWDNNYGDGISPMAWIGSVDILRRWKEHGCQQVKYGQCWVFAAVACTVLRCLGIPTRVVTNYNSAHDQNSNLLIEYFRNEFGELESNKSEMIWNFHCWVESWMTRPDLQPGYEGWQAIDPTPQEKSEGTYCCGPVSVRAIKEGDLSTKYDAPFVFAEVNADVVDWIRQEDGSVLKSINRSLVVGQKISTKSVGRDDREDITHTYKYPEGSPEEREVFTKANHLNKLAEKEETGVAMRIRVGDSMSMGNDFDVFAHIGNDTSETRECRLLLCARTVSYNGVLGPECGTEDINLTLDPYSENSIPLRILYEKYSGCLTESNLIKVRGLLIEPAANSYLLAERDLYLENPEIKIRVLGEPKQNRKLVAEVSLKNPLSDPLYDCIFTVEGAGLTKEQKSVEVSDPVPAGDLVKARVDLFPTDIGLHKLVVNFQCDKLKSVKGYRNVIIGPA
Experimental: To test whether therapeutic doses of KCC009 can modulate TG2 activity associated with intracranial glioblastomas, DBT tumors were injected intracranially in mice. As judged by MRI, the mice consistently established intracranial tumors after 7-10 days following injections, which, if untreated, caused death by 2-3 weeks. In an initial dose-finding experiment, cohorts of mice were administered 4 daily doses of vehicle or KCC009 (12.5 mg/kg, 25 mg/kg and 50 mg/kg) starting on day 11 after intra-cranial injections. Twenty-four hours later, the mice were sacrificed and tumors analyzed. […] Based on these findings a dose of 35 mg/kg was used for subsequent experiments in mice harboring intracranial DBT tumors.
As summarized in Table 4, KCC009 treatment led to significant suppression of TG2 activity after 15 min, whereas enzyme activity recovers fully by 24 h. Both uninhibited and inhibited activity levels are consistent with similar measurements in the small intestinal mucosa (data not shown).

[2] = molecular target: T3, recombinant human tissue transglutaminase (Homo sapiens, UniProt P21980); assay: tTGase inhibition assay, residual activity by glutamate dehydrogenase coupled assay; type: biochemical; details: dihydroisoxazoles, Table 1
T3 construct: made in house
T3 sequence (P21980 1-687): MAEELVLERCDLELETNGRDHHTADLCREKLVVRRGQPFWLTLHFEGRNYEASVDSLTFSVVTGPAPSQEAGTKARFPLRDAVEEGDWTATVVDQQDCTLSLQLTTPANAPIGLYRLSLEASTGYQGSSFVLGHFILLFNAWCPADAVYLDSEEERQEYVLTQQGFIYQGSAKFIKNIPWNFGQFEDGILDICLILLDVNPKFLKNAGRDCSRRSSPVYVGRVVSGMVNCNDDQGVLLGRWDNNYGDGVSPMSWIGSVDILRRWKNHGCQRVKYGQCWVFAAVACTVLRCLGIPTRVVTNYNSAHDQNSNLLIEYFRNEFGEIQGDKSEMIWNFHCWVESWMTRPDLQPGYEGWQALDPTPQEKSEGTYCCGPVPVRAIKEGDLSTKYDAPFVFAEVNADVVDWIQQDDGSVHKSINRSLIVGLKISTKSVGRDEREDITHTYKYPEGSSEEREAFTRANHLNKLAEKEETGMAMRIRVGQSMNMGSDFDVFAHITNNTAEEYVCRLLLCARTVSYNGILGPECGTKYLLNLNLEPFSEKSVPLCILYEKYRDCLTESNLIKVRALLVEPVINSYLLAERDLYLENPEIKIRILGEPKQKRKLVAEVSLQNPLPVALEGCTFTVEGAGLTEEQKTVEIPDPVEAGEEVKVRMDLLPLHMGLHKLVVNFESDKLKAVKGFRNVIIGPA

[3] = molecular target: T4, bovine epidermal transglutaminase (Bos taurus, UniProt A6QP57); details: cited from earlier work
T4 sequence (A6QP57 1-691): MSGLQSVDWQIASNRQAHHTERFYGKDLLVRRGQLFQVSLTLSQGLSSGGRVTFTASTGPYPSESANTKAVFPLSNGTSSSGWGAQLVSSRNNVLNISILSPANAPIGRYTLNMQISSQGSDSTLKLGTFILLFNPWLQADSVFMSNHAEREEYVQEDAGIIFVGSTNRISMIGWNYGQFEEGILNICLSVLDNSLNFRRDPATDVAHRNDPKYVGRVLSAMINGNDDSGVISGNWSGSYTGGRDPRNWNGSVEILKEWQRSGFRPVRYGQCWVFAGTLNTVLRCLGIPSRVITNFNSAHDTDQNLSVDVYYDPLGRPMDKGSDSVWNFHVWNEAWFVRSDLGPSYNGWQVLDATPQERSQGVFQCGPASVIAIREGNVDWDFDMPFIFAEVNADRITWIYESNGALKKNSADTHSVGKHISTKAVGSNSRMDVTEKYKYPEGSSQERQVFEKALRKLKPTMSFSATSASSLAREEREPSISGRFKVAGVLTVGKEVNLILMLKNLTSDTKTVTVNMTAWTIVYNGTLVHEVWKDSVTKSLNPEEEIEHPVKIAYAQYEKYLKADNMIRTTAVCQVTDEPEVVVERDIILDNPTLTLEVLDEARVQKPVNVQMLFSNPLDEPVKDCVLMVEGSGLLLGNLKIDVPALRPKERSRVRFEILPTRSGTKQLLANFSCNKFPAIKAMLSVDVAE

human TG2 [4] = molecular target: T1, human TG2; details: cited from earlier work
[5] = molecular target: T5, human TG2 (tissue transglutaminase, transglutaminase 2) (human, UniProt P21980 1-687, limits assumed); assay: TG2 enzyme inactivation kinetics by the method of Hausch et al.
T5 construct: also called tTGase; tTG
T5 sequence (looked up): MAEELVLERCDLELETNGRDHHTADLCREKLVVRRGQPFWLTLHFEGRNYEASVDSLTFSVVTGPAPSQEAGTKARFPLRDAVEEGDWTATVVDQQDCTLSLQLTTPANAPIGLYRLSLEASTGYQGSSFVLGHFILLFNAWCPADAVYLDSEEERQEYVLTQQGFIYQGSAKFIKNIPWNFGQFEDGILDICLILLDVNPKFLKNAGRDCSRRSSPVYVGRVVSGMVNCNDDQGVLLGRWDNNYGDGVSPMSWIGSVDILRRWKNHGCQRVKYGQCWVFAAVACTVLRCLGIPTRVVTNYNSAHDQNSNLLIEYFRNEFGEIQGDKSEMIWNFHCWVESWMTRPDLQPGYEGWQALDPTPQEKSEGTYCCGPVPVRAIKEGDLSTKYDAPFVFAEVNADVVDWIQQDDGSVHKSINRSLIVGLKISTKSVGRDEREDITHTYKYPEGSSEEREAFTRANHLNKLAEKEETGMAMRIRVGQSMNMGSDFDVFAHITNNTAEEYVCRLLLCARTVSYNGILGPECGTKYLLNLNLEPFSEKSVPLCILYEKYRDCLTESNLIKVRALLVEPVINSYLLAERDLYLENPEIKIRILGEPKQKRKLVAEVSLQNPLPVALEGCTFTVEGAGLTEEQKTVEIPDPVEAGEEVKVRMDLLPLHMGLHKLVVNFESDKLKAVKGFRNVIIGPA

Question: Which ki (human TG2 [1]) does the source give for `CC(=O)N1CCC[C@H]1C(=O)N[C@H](CCC(=O)C=[N+]=[N-])C(=O)N[C@@H](CC(C)C)C(=O)N1CCC[C@H]1C(=O)N[C@@H](Cc1ccccc1)C(N)=O` [Ac-Pro-DON-Leu-Pro-Phe-NH2] (Ac-P[X2]LPF-NH2) here?
Answer: 0.5 min⁻¹

Question: And the ki/KI (human TG2 [1])?
Answer: 8.3

Question: With `O=NN(CCCl)C(=O)NCCCl` [BCNU, reference compound] as the molecule, how does the “TG2 activity-BCNU alone” value (tumor associated TG2; 15 min after last of four daily doses) read?
Answer: 2.1 ± 0.2 (n = 4) nmol/h/mg protein

Question: And the “TG2 activity-BCNU alone” value (tumor associated TG2; 24 h after last of four daily doses)?
Answer: 2.2 ± 0.3 (n = 2) nmol/h/mg protein

Question: For `O=C(N[C@@H](Cc1ccccc1)C(=O)NCC1CC(Br)=NO1)OCc1ccccc1` (stereo partly drawn) [Compound 49, {(S)-1-[(3-Bromo-4,5-dihydro-isoxazol-5-ylmethyl)-carbamoyl]-2-phenyl-ethyl}-carbamic acid benzyl ester], which kinh [2] is on record?
Answer: 1.4 min⁻¹

Question: And the “inhibition of bovine epidermal transglutaminase” value [3]?
Answer: is an inhibitor

Question: For `CC(=O)CSc1n(C)c(C)c(C)[n+]1C.[Cl-]` [L682777], which “inhibition of human TG2” value (human TG2 [4]) is on record?
Answer: inhibits human TG2

B1: Ac-Pro-DON-Leu-Pro-Phe-NH2 (DON=6-diazo-5-oxo-norleucine) (peptide)
peptide: Ac-P[DON]LPF-NH2
SMILES: CC(=O)N1CCC[C@H]1C(=O)N[C@@H](CCC(=O)C=[N+]=[N-])C(=O)N[C@@H](CC(C)C)C(=O)N1CCC[C@H]1C(=O)N[C@@H](Cc1ccccc1)C(N)=O
notes: Position 2 is the non-natural residue DON; also called truncated analog of Ac-Pro-Gln-Pro-DON-Leu-Pro-Phe-NH2
Question: Which Ki [5] does the source give for B1 here?
Answer: 60 nM

Question: And the “ki (inactivation rate constant)” value [5]?
Answer: 0.5 min⁻¹
